# In patent US20230416275A1, “MODULATORS OF CYSTIC FIBROSIS TRANSMEMBRANE CONDUCTANCE REGULATOR” (VERTEX PHARMACEUTICALS INCORPORATED, priority 2020, published 2023):
# Assays:
# [1] = biological target: CFTR-mediated chloride transport in human intestinal epithelial enteroid cells (Homo sapiens, UniProt P13569); assay: Membrane potential dye, Enteroid Assay A; format: cell-based; conditions: for Ent. A Max Activity (%): % of chloride transport of triple combination control (3 μM N-[(6-amino-2-pyridyl)sulfonyl]-6-(3-fluoro-5-isobutoxy-phenyl)-2-[(4S)-2,2,4-trimethylpyrrolidin-1-yl]pyridine-3-carboxamide, 3 μM tezacaftor, 300 nM acute ivacaftor); for EC50: enteroid cells, 18-24 hours incubation, acute 10 μM forskolin and 300 nM ivacaftor, read-out: Ent. A EC50
# Sequence of CFTR-mediated chloride transport in human intestinal epithelial enteroid cells (P13569 with tags, fused parts or gaps DEL508-508): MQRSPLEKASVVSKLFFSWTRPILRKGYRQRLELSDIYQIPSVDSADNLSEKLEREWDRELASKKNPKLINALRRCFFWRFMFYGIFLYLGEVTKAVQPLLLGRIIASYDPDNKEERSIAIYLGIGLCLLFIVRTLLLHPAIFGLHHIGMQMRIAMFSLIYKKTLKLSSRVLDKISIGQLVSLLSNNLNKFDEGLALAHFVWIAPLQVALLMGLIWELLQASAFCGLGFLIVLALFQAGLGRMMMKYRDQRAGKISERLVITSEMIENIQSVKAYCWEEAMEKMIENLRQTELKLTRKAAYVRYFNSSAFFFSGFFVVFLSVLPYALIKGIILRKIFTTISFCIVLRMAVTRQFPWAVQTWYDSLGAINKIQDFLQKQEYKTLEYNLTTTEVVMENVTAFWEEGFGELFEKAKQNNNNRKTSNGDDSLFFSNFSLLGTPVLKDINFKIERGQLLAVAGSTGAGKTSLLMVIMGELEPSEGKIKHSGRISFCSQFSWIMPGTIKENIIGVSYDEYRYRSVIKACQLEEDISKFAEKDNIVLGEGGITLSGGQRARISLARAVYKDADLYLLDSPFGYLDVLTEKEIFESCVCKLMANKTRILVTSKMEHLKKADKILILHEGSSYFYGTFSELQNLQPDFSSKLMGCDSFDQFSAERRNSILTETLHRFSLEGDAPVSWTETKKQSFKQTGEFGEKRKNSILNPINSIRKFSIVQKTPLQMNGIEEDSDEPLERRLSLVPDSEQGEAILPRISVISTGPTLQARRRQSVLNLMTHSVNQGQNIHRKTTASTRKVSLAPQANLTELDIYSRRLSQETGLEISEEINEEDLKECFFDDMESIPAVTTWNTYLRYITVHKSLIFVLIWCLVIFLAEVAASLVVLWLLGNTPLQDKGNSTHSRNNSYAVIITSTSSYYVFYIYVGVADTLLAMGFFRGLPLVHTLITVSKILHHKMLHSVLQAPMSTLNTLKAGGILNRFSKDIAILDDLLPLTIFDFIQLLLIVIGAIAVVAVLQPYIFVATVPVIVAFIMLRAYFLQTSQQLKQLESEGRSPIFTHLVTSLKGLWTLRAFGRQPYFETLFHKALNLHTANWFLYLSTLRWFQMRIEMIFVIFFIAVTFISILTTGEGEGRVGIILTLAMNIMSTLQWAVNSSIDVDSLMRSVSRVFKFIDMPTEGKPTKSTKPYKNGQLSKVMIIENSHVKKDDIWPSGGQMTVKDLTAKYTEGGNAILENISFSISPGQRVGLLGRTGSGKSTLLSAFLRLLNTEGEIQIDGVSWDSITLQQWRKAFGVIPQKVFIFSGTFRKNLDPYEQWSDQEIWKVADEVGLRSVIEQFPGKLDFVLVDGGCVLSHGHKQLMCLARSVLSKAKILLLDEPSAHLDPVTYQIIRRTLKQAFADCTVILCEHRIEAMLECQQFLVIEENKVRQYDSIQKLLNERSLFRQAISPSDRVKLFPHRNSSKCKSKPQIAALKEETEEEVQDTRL
# Method: Base medium (ADF+++) consisted of Advanced DMEM/Ham's F12, 2 mM Glutamax, 10 mM HEPES, […] penicillin/streptomycin.
# Intestinal enteroid maintenance medium (IEMM) consisted of ADF+++, 1×B27 supplement, 1×N2 supplement, 1.25 mM N-acetyl cysteine, 10 mM Nicotinamide, 50 ng/mL hEGF, 10 nM Gastrin, 1 μg/mL hR-spondin-1, 100 ng/mL hNoggin, TGF-b type 1 inhibitor A-83-01, 100 μg/mL Primocin, 10 μM P38 MAPK inhibitor SB202190.
# Bath 1 Buffer consisted of 1 mM MgCl2, 160 mM NaCl, 4.5 mM KCl, 10 mM HEPES, 10 mM Glucose, 2 mM CaCl2.
# Chloride Free Buffer consisted of 1 mM Magnesium Gluconate, 2 mM Calcium Gluconate, 4.5 mM Potassium Gluconate, 160 mM Sodium Gluconate, 10 mM HEPES, 10 mM Glucose.
# Bath1 Dye Solution consisted of Bath 1 Buffer, 0.04% Pluronic F127, 20 μM Methyl Oxonol, 30 μM CaCCinh-A01, 30 μM Chicago Sky Blue.
# Chloride Free Dye Solution consisted of Chloride Free Buffer, 0.04% Pluronic F127, 20 μM Methyl Oxonol, 30 μM CaCCinh-A01, 30 μM Chicago Sky Blue.
# Chloride Free Dye Stimulation Solution consisted of Chloride Free Dye Solution, 10 μM forskolin, 100 μM IBMX, and 300 nM Compound III.
# Human intestinal epithelial enteroid cells were obtained from the Hubrecht Institute for Developmental Biology and Stem Cell Research, Utrecht, The Netherlands and expanded in T-Flasks as previously described (Dekkers J F, Wiegerinck C L, de Jonge H R, Bronsveld I, Janssens H M, de Winter-de Groot K M, Brandsma A M, de Jong N W M, Bijvelds M J C, Scholte B J, Nieuwenhuis E E S, van den Brink S, Clevers H, van der Ent C K, Middendorp S and M Beekman J M. A functional CFTR assay using primary cystic fibrosis intestinal organoids. Nat Med. 2013 July; 19(7):939-45).
# c. Enteroid Cell Harvesting and Seeding
# Cells were recovered in cell recovery solution, collected by centrifugation at 650 rpm for 5 minutes at 4° C., resuspended in TrypLE and incubated for 5 minutes at 37° C. Cells were then collected by centrifugation at 650 rpm for 5 minutes at 4° C. and resuspended in IEMM containing 10 μM ROCK inhibitor (RI). The cell suspension was passed through a 40 μm cell strainer and resuspended at 1×10^6 cells/mL in IEMM containing 10 μM RI. Cells were seeded at 5000 cells/well into multi-well plates and incubated for overnight at 37° C., 95% humidity and 5% CO2 prior to assay.
# d. Membrane Potential Dye, Enteroid Assay A
# Enteroid cells were incubated with test compound in IEMM for 18-24 hours at 37° C., 95% humidity and 5% CO2. […] Briefly, cells were washed 5 times in Bath 1 Buffer. Bath 1 Dye Solution was added, and the cells were incubated for 25 minutes at room temperature. Following dye incubation, cells were washed 3 times in Chloride Free Dye Solution. Chloride transport was initiated by addition of Chloride Free Dye Stimulation Solution and the fluorescence signal was read for 15 minutes. […] Chloride transport was then expressed as a percentage of the chloride transport following treatment with 3 μM N-[(6-amino-2-pyridyl)sulfonyl]-6-(3-fluoro-5-isobutoxy-phenyl)-2-[(4S)-2,2,4-trimethylpyrrolidin-1-yl]pyridine-3-carboxamide, 3 μM (R)-1-(2,2-difluorobenzo[d][1,3]dioxol-5-yl)-N-(1-(2,3-dihydroxypropyl)-6-fluoro-2-(1-hydroxy-2-methylpropan-2-yl)-1H-indol-5-yl)cyclopropanecarboxamide and 300 nM acute N-[2,4-bis(1,1-dimethylethyl)-5-hydroxyphenyl]-1,4-dihydro-4-oxoquinoline-3-carboxamide triple combination control (% Activity).
# [2] = biological target: T1, F508del in NIH 3T3 cells (Homo sapiens, UniProt P13569, DEL508-508); assay: 3T3 assay: membrane potential optical assay for F508del correction; format: cell-based, mouse; conditions: for EC50 / 3T3 Max Activity (%): F508del NIH 3T3 cells; for EC50: compound incubation 18-24 hours at 37° C., forskolin activation, read-out: 3T3 EC50; for Emax: NIH3T3, F508del NIH 3T3 cells, read-out: 3T3 Max Activity (%); for Emax / 3T3 Max Activity (%): efficacy compared to lumacaftor in combination with acutely added 300 nM Ivacaftor
# T1 construct: expressed in transfected cells
# T1 sequence (P13569 with tags, fused parts or gaps DEL508-508): as above
# Source text: a. Membrane Potential Optical Methods for Assaying F508del Modulation Properties of Compounds
# The assay utilizes fluorescent voltage sensing dyes to measure changes in membrane potential using a fluorescent plate reader (e.g., FLIPR III, Molecular Devices, Inc.) as a readout for increase in functional F508del in NIH 3T3 cells. The driving force for the response is the creation of a chloride ion gradient in conjunction with channel activation by a single liquid addition step after the cells have previously been treated with compounds and subsequently loaded with a voltage sensing dye.
# b. Identification of Corrector Compounds
# To identify correctors of F508del, a single-addition HTS assay format was developed. This HTS assay utilizes fluorescent voltage sensing dyes to measure changes in membrane potential on the FLIPR III as a measurement for increase in gating (conductance) of F508del in F508del NIH 3T3 cells. The F508del NIH 3T3 cell cultures were incubated with the corrector compounds at a range of concentrations for 18-24 hours at 37° C., and subsequently loaded with a redistribution dye. The driving force for the response is a Cl^− ion gradient in conjunction with channel activation with forskolin in a single liquid addition step using a fluorescent plate reader such as FLIPR III.
# Bath Solution #1: (in mM) NaCl 160, KCl 4.5, CaCl2 2, MgCl2 1, HEPES 10, pH 7.4 with NaOH.
# Chloride-free bath solution: Chloride salts in Bath Solution #1 (above) are substituted with gluconate salts.
# NIH3T3 mouse fibroblasts stably expressing F508del are used for optical measurements of membrane potential. The cells are maintained at 37° C. in 5% CO2 and 90% humidity in Dulbecco's modified Eagle's medium supplemented with 2 mM glutamine, 10% fetal bovine serum, 1×NEAA, b-ME, 1× pen/strep, and 25 mM HEPES in 175 cm^2 culture flasks. For all optical assays, the cells were seeded at ˜20,000/well in 384-well Matrigel-coated plates. For the correction assays, the cells are cultured at 37° C. with and without compounds for 16-24 hours.
SMILES,Ent. A Max Activity (%) [1],EC50 [2] [nM],Emax [2] [%],EC50 [1] [nM],3T3 Max Activity (%) [2]
"Cc1cccc(C)c1-c1cc2nc(n1)NS(=O)(=O)c1cccc(c1)NC(=O)[C@H]1C[C@H](CN(C(=O)OC(C)(C)C)C1)O2 (single isomer, unassigned) [Compound 1]",+ (+ is <30%),< 1000,30 to 60,,
"Cc1cccc(C)c1-c1cc2nc(n1)NS(=O)(=O)c1cccc(c1)NC(=O)[C@@H]1C[C@@H](CN(C(=O)OC(C)(C)C)C1)O2 (single isomer, unassigned) [Compound 2]",+++ (+++ is >60%),< 1000,> 60,< 1000,
"Cc1cccc(C)c1-c1cc2nc(n1)NS(=O)(=O)c1cccc(c1)NC(=O)[C@@H]1C[C@H](CN(C(=O)OC(C)(C)C)C1)O2 (single isomer, unassigned) [Compound 3]",+ (+ is <30%),1000 to 3000,> 60,1000 to 3000,
"Cc1cccc(C)c1-c1cc2nc(n1)NS(=O)(=O)c1cccc(c1)NC(=O)[C@H]1CCC[C@H](C1)O2 (single isomer, unassigned) [Compound 68, 5-(2,6-dimethylphenyl)-9,9-dioxo-2-oxa-9λ^6-thia-6,8,15,23-tetraazatetracyclo[15.3.1.13,7.110,14]tricosa-3,5,7(23),10(22),11,13-hexaen-16-one]",++ (++ is 30-60%),< 1000,> 60,3000 to 30000,
"Cc1cccc(C)c1-c1cc2nc(n1)NS(=O)(=O)c1cccc(c1)NC(=O)[C@H]1CCC[C@H](C1)O2 (single isomer, unassigned) [Compound 69, 5-(2,6-dimethylphenyl)-9,9-dioxo-2-oxa-9λ^6-thia-6,8,15,23-tetraazatetracyclo[15.3.1.13,7.110,14]tricosa-3,5,7(23),10(22),11,13-hexaen-16-one]",++ (++ is 30-60%),< 1000,,1000 to 3000,+++ (+++ is >60%)
"Cc1cccc(C)c1-c1cc2nc(n1)NS(=O)(=O)c1cccc(c1)NC(=O)[C@H]1CCC[C@H](C1)O2 (single isomer, unassigned) [Compound 70, 5-(2,6-Dimethylphenyl)-9,9-dioxo-2-oxa-9λ^6-thia-6,8,15,23-tetraazatetracyclo[15.3.1.13,7.110,14]tricosa-3,5,7(23),10(22),11,13-hexaen-16-one]",++ (++ is 30-60%),1000 to 3000,,1000 to 3000,+++ (+++ is >60%)
"Cc1cccc(C)c1-c1cc2nc(n1)NS(=O)(=O)c1cccc(c1)NC(=O)[C@H]1CCC[C@H](C1)O2 (single isomer, unassigned) [Compound 71, 5-(2,6-dimethylphenyl)-9,9-dioxo-2-oxa-9λ^6-thia-6,8,15,23-tetraazatetracyclo[15.3.1.13,7.110,14]tricosa-3,5,7(23),10(22),11,13-hexaen-16-one]",+++ (+++ is >60%),1000 to 3000,,1000 to 3000,+++ (+++ is >60%)
"Cc1cccc(C)c1-c1cc2nc(n1)NS(=O)(=O)c1cccc(c1)NC(=O)[C@@H]1C[C@@H](CN(CCC(C)(C)C)C1)O2 [Compound 5, (3S,7R)-5-(3,3-Dimethylbutyl)-19-(2,6-dimethylphenyl)-2-oxa-15λ^6-thia-5,9,16,18,21-pentaazatetracyclo[15.3.1.13,7.110,14]tricosa-1(20),10,12,14(22),17(21),18-hexaene-8,15,15-trione]",+++ (+++ is >60%),< 1000,> 60,< 1000,
"COCCN1C[C@@H]2C[C@H](C1)C(=O)Nc1cccc(c1)S(=O)(=O)Nc1nc(cc(-c3c(C)cccc3C)n1)O2 [Compound 7, (3S,7R)-19-(2,6-Dimethylphenyl)-5-(2-methoxyethyl)-2-oxa-15λ^6-thia-5,9,16,18,21-pentaazatetracyclo[15.3.1.13,7.110,14]tricosa-1(21),10(22),11,13,17,19-hexaene-8,15,15-trione]",+++ (+++ is >60%),< 1000,> 60,1000 to 3000,
Cc1cccc(C)c1-c1cc2nc(n1)NS(=O)(=O)c1cccc(c1)NC(=O)[C@@H]1C[C@@H](CN1C(=O)OC(C)(C)C)O2 [Compound 80],+ (+ is <30%),,,,
Cc1cccc(C)c1-c1cc2nc(n1)NS(=O)(=O)c1cccc(c1)NC(=O)[C@@H]1C[C@H](O2)C(=O)N(CCC(C)(C)C)C1 [Compound 88],++ (++ is 30-60%),,,3000 to 30000,
Cc1cccc(C)c1-c1cc2nc(n1)NS(=O)(=O)c1cccc(c1)NC(=O)[C@@H]1C[C@H](O2)C(=O)N(CCC(C)(C)C)C1 [Compound 89],+ (+ is <30%),,,,
Cc1cccc(C)c1-c1cc2nc(n1)NS(=O)(=O)c1cccc(c1)NC(=O)[C@@H]1C[C@H](O2)C(=O)N(CCC(C)(C)C)C1 [Compound 90],++ (++ is 30-60%),,,3000 to 30000,
Cc1cccc(C)c1-c1cc2nc(n1)NS(=O)(=O)c1cccc(c1)NC(=O)[C@@H]1C[C@H](O2)C(=O)N(CCC(C)(C)C)C1 [Compound 91],+ (+ is <30%),,,3000 to 30000,
Cc1cccc(C)c1-c1cc2nc(n1)NS(=O)(=O)c1cccc(c1)NC(=O)C1CC(O2)C(=O)N(CCC(C)(C)C)C1 (stereo not drawn) [Compound 92],+ (+ is <30%),,,,
Cc1cccc(C)c1-c1cc2nc(n1)NS(=O)(=O)c1cccc(c1)NC(=O)C1CC(O2)C(=O)N(CCC(C)(C)C)C1 (stereo not drawn) [Compound 93],++ (++ is 30-60%),,,,
